Source: PubChem BioAssay (NCI)
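Growth conditions: 96-well plates. Treatment: test compound, 48 hours, 5 concentrations. Analysis: linear interpolation between bracketing concentrations; unreached endpoints set to highest concentration. TGI is the concentration that stops growth completely.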

Experiments:
Assay in all cases: inhibition of tumour cell growth, NCI panel, 48 h
M14 melanoma = system: M14 melanoma
OVCAR-5 ovarian = system: OVCAR-5 ovarian
HOP-62 NSCLC = system: HOP-62 NSCLC
SK-MEL-2 melanoma = system: SK-MEL-2 melanoma
MCF7 breast = system: MCF7 breast
MDA-MB-231 breast = system: MDA-MB-231 breast
HL-60(TB) leukemia = system: HL-60(TB) leukemia
HOP-92 NSCLC = system: HOP-92 NSCLC
OVCAR-8 ovarian = system: OVCAR-8 ovarian
K-562 leukemia = system: K-562 leukemia

SMILES: COc1cc(Nc2ccc3c(c2)CCC3)nc(OC)n1
- TGI (M14 melanoma): > 100 µM
- TGI (OVCAR-5 ovarian): > 100 µM
- TGI (HOP-62 NSCLC): > 100 µM
- TGI (SK-MEL-2 melanoma): > 100 µM
- TGI (MCF7 breast): > 100 µM
- TGI (MDA-MB-231 breast): > 100 µM
- TGI (HL-60(TB) leukemia): > 100 µM
- TGI (HOP-92 NSCLC): > 100 µM
- TGI (OVCAR-8 ovarian): > 100 µM

SMILES: Clc1ccc(C=NC23CC4CC(CC(C4)C2)C3)c(Cl)c1
- TGI (M14 melanoma): > 10 µM
- TGI (OVCAR-5 ovarian): > 10 µM
- TGI (K-562 leukemia): > 10 µM
- TGI (HOP-62 NSCLC): > 10 µM
- TGI (SK-MEL-2 melanoma): > 10 µM
- TGI (MDA-MB-231 breast): > 10 µM
- TGI (HL-60(TB) leukemia): > 10 µM
- TGI (HOP-92 NSCLC): > 10 µM
- TGI (OVCAR-8 ovarian): > 10 µM

SMILES: CCOC(=O)/C=C1/C(CCCOCc2ccccc2)C2CCCC23CC2(CCN13)OCCO2 (configuration not stated)
- TGI (OVCAR-5 ovarian): > 100 µM
- TGI (K-562 leukemia): 63.7 µM
- TGI (SK-MEL-2 melanoma): 36.9 µM
- TGI (HL-60(TB) leukemia): 30 µM
- TGI (OVCAR-8 ovarian): > 100 µM

SMILES: CCCCOCCOC1=C(Cl)C(=O)c2c(O)ccc(O)c2C1=O
- TGI (M14 melanoma): 0.525 µM
- TGI (OVCAR-5 ovarian): 2.66 µM
- TGI (HOP-62 NSCLC): 2.49 µM
- TGI (SK-MEL-2 melanoma): 2.78 µM
- TGI (MCF7 breast): 2.04 µM
- TGI (MDA-MB-231 breast): 1.07 µM
- TGI (HOP-92 NSCLC): 0.657 µM
- TGI (OVCAR-8 ovarian): 2.56 µM

SMILES: Nc1c(S(=O)(=O)c2ccc(Cl)cc2)c2nc3ccccc3nc2n2ccnc12
- TGI (M14 melanoma): > 100 µM
- TGI (OVCAR-5 ovarian): > 100 µM
- TGI (K-562 leukemia): > 100 µM
- TGI (SK-MEL-2 melanoma): > 100 µM
- TGI (HL-60(TB) leukemia): > 100 µM
- TGI (HOP-92 NSCLC): > 100 µM
- TGI (OVCAR-8 ovarian): > 100 µM

SMILES: CN1Cc2c(nc(-c3ccccc3)c[n+]2[O-])N(C)C1
- TGI (M14 melanoma): > 100 µM
- TGI (OVCAR-5 ovarian): > 100 µM
- TGI (K-562 leukemia): > 100 µM
- TGI (HOP-62 NSCLC): > 100 µM
- TGI (SK-MEL-2 melanoma): > 100 µM
- TGI (HL-60(TB) leukemia): > 100 µM
- TGI (HOP-92 NSCLC): > 100 µM
- TGI (OVCAR-8 ovarian): > 100 µM

SMILES: COc1ccc(CC(N)=O)cc1OC
- TGI (OVCAR-5 ovarian): > 1250 µM
- TGI (K-562 leukemia): > 1250 µM
- TGI (HOP-62 NSCLC): > 1250 µM
- TGI (SK-MEL-2 melanoma): > 1250 µM
- TGI (MCF7 breast): > 1250 µM
- TGI (HL-60(TB) leukemia): > 1250 µM
- TGI (HOP-92 NSCLC): > 1170 µM
- TGI (OVCAR-8 ovarian): > 125 µM

SMILES: O=C1C(=Nc2ccc(Nc3ccccc3)cc2)Oc2ccccc21
- TGI (M14 melanoma): 5.38 µM
- TGI (OVCAR-5 ovarian): 10.1 µM
- TGI (K-562 leukemia): 11.4 µM
- TGI (HOP-62 NSCLC): 22 µM
- TGI (SK-MEL-2 melanoma): 14.4 µM
- TGI (MCF7 breast): 5.74 µM
- TGI (MDA-MB-231 breast): 4.51 µM
- TGI (HL-60(TB) leukemia): 4.9 µM
- TGI (OVCAR-8 ovarian): 6.07 µM

SMILES: O=C(CN1C(=O)CC(c2ccccc2)(c2ccccc2)C1=O)N1CCN(CCO)CC1
- TGI (M14 melanoma): > 100 µM
- TGI (OVCAR-5 ovarian): > 100 µM
- TGI (K-562 leukemia): > 100 µM
- TGI (HOP-62 NSCLC): > 100 µM
- TGI (SK-MEL-2 melanoma): > 100 µM
- TGI (MCF7 breast): > 100 µM
- TGI (MDA-MB-231 breast): > 100 µM
- TGI (HOP-92 NSCLC): > 100 µM
- TGI (OVCAR-8 ovarian): > 100 µM

SMILES: CCOc1c(OC)cc(-c2nc3n(n2)C(=O)C(CC)S3)cc1OC (configuration not stated)
- TGI (M14 melanoma): > 10 µM
- TGI (OVCAR-5 ovarian): > 10 µM
- TGI (K-562 leukemia): > 10 µM
- TGI (HOP-62 NSCLC): > 10 µM
- TGI (SK-MEL-2 melanoma): > 10 µM
- TGI (MCF7 breast): > 10 µM
- TGI (MDA-MB-231 breast): > 10 µM
- TGI (HL-60(TB) leukemia): > 10 µM
- TGI (OVCAR-8 ovarian): > 10 µM

SMILES: Cn1c2ccccc2c2c(=S)c3ccccc3ccc21
- TGI (M14 melanoma): > 100 µM
- TGI (OVCAR-5 ovarian): > 100 µM
- TGI (K-562 leukemia): > 100 µM
- TGI (HOP-62 NSCLC): > 100 µM
- TGI (MCF7 breast): > 100 µM
- TGI (MDA-MB-231 breast): > 100 µM
- TGI (HL-60(TB) leukemia): > 100 µM
- TGI (HOP-92 NSCLC): > 100 µM
- TGI (OVCAR-8 ovarian): > 100 µM

SMILES: C=C(CN(C)C)C(=O)c1ccc(C(=O)C(=C)CN(C)C)cc1
- TGI (M14 melanoma): > 100 µM
- TGI (OVCAR-5 ovarian): > 100 µM
- TGI (K-562 leukemia): > 100 µM
- TGI (SK-MEL-2 melanoma): > 100 µM
- TGI (HL-60(TB) leukemia): > 100 µM
- TGI (HOP-92 NSCLC): > 100 µM
- TGI (OVCAR-8 ovarian): > 100 µM
